Patent US5132216A, “Microbial transformation process for antihypertensive products” (Merck & Co., Inc., priority 1991, dated 1992)

Target: T1, Angiotensin II (A II) receptor (Oryctolagus cuniculus, UniProt P34976)
T1 sequence (P34976 1-359): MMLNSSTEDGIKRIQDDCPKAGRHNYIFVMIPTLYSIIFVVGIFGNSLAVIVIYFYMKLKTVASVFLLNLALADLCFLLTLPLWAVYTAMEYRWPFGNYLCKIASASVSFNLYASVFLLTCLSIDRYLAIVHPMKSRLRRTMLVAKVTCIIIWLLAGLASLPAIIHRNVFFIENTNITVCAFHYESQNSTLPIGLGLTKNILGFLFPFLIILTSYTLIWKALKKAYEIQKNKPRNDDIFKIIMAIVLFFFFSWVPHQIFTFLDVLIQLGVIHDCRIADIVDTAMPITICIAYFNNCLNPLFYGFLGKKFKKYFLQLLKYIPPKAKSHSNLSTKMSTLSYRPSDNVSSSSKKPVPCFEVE
Assay: Receptor binding assay using rabbit aortae membrane preparation (125I-Sar1Ile8-angiotensin II displacement, "IC50" assay)
Method: This assay is also referred to herein as the "IC50 " assay.
Receptor binding assay using rabbit aortae membrane preparation
Three frozen rabbit aortae (obtained from Pel-Freeze Biologicals) were suspended in 5 mM Tris-0.25M Sucrose, pH 7.4 buffer (50 ml) homogenized, and then centifuged. The mixture was filtered through a cheesecloth and the supernatant was centrifuged for 30 minutes at 20,000 rpm at 4° C. The pellet thus obtained was resuspended in 30 ml of 50 mM Tris-5 mM MgCl2 buffer containing 0.2% Bovine Serum Albumin and 0.2 mg/ml Bacitration and the suspension was used for 100 assay tubes. Samples tested for screening were done in duplicate. To the membrane preparation (0.25 ml) there was added ^125 I-Sar^1 Ile^8 -angiotensin II [obtained from New England Nuclear] (10 ul; 20,000 cpm) with or without the test sample and the mixture was incubated at 37° C. for 90 minutes. The mixture was then diluted with ice-cold 50 mM Tris-0.9% NaCl, pH 7.4 (4 ml) and filtered through a glass fiber filter (GF/B Whatman 2.4" diameter). The filter was soaked in scintillation cocktail (10 ml) and counted for radioactivity using Packard 2660 Tricarb liquid scintillation counter. […]

A II antagonist activity by the IC50 assay: exhibit A II antagonist activity
SMILES: Cc1cc(CO)nc2c1nc(C(C)O)n2Cc1ccc(-c2ccccc2-c2nnn[nH]2)cc1 (stereo not shown) [compound (IV)]
